Structures are written as SMILES. Where two headings read alike, the source gives them in different places.

The values below come from US6794386B2, “β-amino acid compounds as integrin antagonists” (Bayer Aktiengesellschaft, priority 2000, dated 2004).

The experiment concerns the target T1, VLA-4 (Homo sapiens, UniProt P05556+P13612).
T1 construct: host or cells: Jurkat clone E6-1
The experiment is described as follows: Adhesion of Jurkat cells to immobilized VCAM-1 (domains 1-3). The conditions noted are these: adhesion of CFSE-labeled Jurkat cells to recombinant human VCAM-1 (domains 1-3) coated plates, compounds as yielded by solid phase synthesis, purity about 40-90%. Type of experiment: cell-based. Further details: scale not given here. As for the experimental part: In Vitro Assay: Adhesion of Jurkat Cells to Immobilized VCAM-1 (Domains 1-3).
Preparation of Fluorescence Labeled Jurkat Cells:
Jurkat cells (American Type Culture Collection, Clone E6-1, ATCC TIB-152) were cultured in RPMI 1640 medium (Nikken Bio Medical Laboratory, CM1101) supplemented with 10% fetal bovine serum (Hyclone, A-1119-L), 100 U/ml penicilin (Gibco BRL, 15140-122) and 100 μg/ml streptomycin (Gibco BRL, 15140-122) in a humidified incubator at 37° C. with 5% CO2.
Jurkat cells were incubated with phosphate balanced solution (PBS, Nissui, 05913) containing 25 μM of 5(-and-6)-carboxyfluorescein diacetate, succinimidyle ester (CFSE, Dojindo Laboratories, 345-06441) for 20 min at room temperature while gently swirling every 5 min. After centrifugation at 1000 rpm for 5 min, the cell pellet was resuspended with adhesion assay buffer at a cell density of 2×10^6 cells/ml. The adhesion assay buffer was composed of 24 mM Tris-HCl (pH 7.4), 137 mM NaCl, 27 mM KCl, 4 mM glucose, 0.1% bovine serum albumin (BSA, Sigma, A9647) and 2 mM MnCl2.
Preparation of VCAM-1 (Extracellular Domains 1-3):
Complementary DNA (cDNA) encoding 7-domain form of VCAM-1 (GenBank accession #M60335) was obtained using Rapid-Screen™ cDNA library panels (OriGene Technologies, Inc) at Takara Gene Analysis Center (Shiga, Japan). The primers used were 5′-CCAAGGCAGAGTACGCAAAC-3′ (sence) and 5′-TGGCAGGTATTATTAAGGAG-3′ (antisense). PCR amplification of the 3-domain VCAM-1 cDNA was perform using Pfu DNA polymerase (Stratagene) with the following sets of primers: (U-VCAMd1-3) 5′-CCATATGGTACCTGATCAATTTAAAATCGAGACCACCCCAGAA-3′; (L-VCAMd1-3) 5′-CCATATAGCAATCCTAGGTCCAGGGGAGATCTCAACAGTAAA-3′. PCR cycle was 94° C. for 45 sec, 55° C. for 45 sec, 72° C. for 2 min, repeating 15 cycles. After the purification of the PCR product, the fragment was digested with KpnI-AvrII. The digested fragment was ligated into pBluescript IISK(−) (Strategene), which was linealized by digesting with KpnI-XhoI. The ligation was followed by transformation to a Dam/Dcm methylase-free E. coli strain SCS110 (Strategene) to create the donor plasmid pH7. To direct VCAM-1 molecule into the insect cell secretory pathway, the VCAM-1 coding sequence was fused to signal peptide sequence of honeybee melittin. The resulting melittin-VCAM fusion was placed in correct orientation to the baculoviris polyhedrin promoter. Baculovirus transfer vector containing first 3-domain form VCAM-1 (pH10) was constructed by ligation of 0.9 kb fragment from AvrII/Klenow/BclI digests of pH7 into SalI/Klenow/BamHI digests of pMelBacB (Invitrogen). Recombinant baculovirus was generated by using Bac-N-Blue™ Transfection kit (Invitrogen) according to the manufacture's instruction. The recombinant virus was amplified by infection to High-Five™ insect cells for 5-6 days, and virus titer was determined by plaque assay.
High-Five™ insect cells were pelleted in a 225 ml conical tube by centrifugation at 1000 rpm for 5 min After discarding the supernatant, the pellet was resuspended in 1.5×10^9 pfu (MOI=5) of high-titer virus solution, followed by incubation for 1.5 hours at room temperature. The cells were pelleted again and washed once in fresh Express Five™ serum free medium. The cells were pelleted again and finally, resuspended in 200 ml of fresh Express Five™ medium, transferred to a 1,000 ml shaker flask, and incubated in a shaker at 27° C., 130 rpm, for 48 hours before the culture supernatant was collected. The purification of 3-domain form of VCAM-1 from the culture supernatant was performed by one-step anion exchange chromatography. Protein concentration was determined by using Coomassie protein assay reagent (Pierce) according to the manufacture's instruction.
Preparation of Microtiter Plates:
Recombinant human VCAM-1 (extracellular domains 1-3) was dissolved at 0.5 μg/ml in PBS. […]

T1 sequence (P13612 34-1032): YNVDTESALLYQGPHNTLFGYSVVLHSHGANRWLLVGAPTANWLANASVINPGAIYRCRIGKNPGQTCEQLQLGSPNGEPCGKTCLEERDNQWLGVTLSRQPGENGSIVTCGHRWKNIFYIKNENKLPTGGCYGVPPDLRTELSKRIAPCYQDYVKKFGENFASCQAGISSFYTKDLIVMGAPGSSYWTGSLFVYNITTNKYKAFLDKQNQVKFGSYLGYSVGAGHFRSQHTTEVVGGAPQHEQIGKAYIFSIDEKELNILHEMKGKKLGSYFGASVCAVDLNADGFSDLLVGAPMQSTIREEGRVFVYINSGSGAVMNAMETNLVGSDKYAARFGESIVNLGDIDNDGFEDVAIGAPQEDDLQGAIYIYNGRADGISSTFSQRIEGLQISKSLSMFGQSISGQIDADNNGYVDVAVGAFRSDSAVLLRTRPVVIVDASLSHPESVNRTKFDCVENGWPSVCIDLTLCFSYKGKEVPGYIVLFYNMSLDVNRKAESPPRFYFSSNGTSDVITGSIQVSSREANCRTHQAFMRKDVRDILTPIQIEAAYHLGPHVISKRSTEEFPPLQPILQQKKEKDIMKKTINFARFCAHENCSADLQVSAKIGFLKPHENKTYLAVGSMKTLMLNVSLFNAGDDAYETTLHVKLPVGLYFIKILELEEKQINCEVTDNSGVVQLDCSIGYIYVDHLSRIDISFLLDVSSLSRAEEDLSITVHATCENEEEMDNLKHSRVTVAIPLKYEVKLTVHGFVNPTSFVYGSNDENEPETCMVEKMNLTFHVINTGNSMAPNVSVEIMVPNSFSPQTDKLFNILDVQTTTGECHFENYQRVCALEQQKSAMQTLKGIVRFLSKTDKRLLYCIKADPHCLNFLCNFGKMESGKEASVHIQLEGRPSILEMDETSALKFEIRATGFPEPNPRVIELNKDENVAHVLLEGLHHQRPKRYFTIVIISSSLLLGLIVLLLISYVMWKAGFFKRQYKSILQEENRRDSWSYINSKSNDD
T1 sequence (P05556 21-798): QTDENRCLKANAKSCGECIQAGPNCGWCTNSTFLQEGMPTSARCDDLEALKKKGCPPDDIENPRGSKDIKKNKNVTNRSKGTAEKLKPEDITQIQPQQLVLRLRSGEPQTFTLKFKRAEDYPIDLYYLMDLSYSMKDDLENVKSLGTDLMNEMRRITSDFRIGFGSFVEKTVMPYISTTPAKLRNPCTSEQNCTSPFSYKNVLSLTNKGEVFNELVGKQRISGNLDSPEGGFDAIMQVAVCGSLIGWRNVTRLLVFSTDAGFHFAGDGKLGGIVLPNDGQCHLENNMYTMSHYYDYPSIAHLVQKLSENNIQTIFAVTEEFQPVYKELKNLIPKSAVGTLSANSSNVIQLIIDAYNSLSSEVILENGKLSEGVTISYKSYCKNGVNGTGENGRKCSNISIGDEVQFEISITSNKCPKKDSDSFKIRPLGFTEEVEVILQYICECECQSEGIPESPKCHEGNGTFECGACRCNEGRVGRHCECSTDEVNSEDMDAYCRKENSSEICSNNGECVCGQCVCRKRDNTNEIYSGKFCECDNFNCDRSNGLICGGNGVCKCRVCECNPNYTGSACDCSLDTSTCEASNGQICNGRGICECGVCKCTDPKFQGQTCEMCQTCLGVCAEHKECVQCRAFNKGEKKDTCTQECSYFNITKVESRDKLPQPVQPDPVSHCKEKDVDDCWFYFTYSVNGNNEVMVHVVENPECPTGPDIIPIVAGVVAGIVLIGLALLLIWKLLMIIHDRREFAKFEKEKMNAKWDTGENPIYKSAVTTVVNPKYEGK

With `COc1ccc(-c2ccc(C[C@H](NC(=O)C3CCCN(S(=O)(=O)c4ccccc4C(F)(F)F)C3)C(=O)O)cc2)cc1` (stereo partly shown) [Example 1.80], the IC50 result was “C-D”.

With `COc1ccc(-c2ccc(C[C@H](NC(=O)C3CCCN(S(=O)(=O)c4cc(Cl)ccc4OC)C3)C(=O)O)cc2)cc1` (stereo partly shown) [Example 1.81], the IC50 entry was “C-D”. Turning to `COc1ccc(-c2ccc(C[C@H](NC(=O)C3CCCN(S(=O)(=O)Cc4ccccc4)C3)C(=O)O)cc2)cc1` (stereo partly shown) [Example 1.82], the 50% inhibitory concentration (IC50) result was “C-D”.

Consider `COc1ccc(-c2ccc(C[C@H](NC(=O)C3CCCN(S(=O)(=O)c4cc(Cl)cc(Cl)c4)C3)C(=O)O)cc2)cc1` (stereo partly shown) [Example 1.83], for which the IC50 entry is “C-D”. `Cc1ccccc1-c1ccc(C[C@H](NC(=O)C2CCCN(S(=O)(=O)CC34CCC(CC3=O)C4(C)C)C2)C(=O)O)cc1` (stereo partly shown) [Example 1.84]: the IC50 entry is “C-D”.

For the molecule `Cc1ccc(S(=O)(=O)N2CCCC(C(=O)N[C@@H](Cc3ccc(-c4ccccc4C)cc3)C(=O)O)C2)cc1` (stereo partly shown) [Example 1.85], for the setting “read-out: IC50”, the concentration for half-maximal inhibition (IC50) is 500 to 2000 nM. The same measure, in the same setting: to `COC(=O)c1ccccc1S(=O)(=O)N1CCCC(C(=O)N[C@@H](Cc2ccc(-c3ccccc3C)cc2)C(=O)O)C1` (stereo partly shown) [Example 1.86] belongs 2000 to 10000 nM. Consider `Cc1ccccc1-c1ccc(C[C@H](NC(=O)C2CCCN(S(=O)(=O)c3ccc4ccccc4c3)C2)C(=O)O)cc1` (stereo partly shown) [Example 1.87], for which the half-maximal inhibitory concentration (IC50) (read-out: IC50) fell in the range of 500 to 2000 nM. For `COc1ccc(S(=O)(=O)N2CCCC(C(=O)N[C@@H](Cc3ccc(-c4ccccc4C)cc3)C(=O)O)C2)cc1OC` (stereo partly shown) [Example 1.88], the 50% inhibitory concentration (IC50) (read-out: IC50) is 2000 to 10000 nM. Turning to `Cc1ccccc1-c1ccc(C[C@H](NC(=O)C2CCCN(S(=O)(=O)c3ccccc3C(F)(F)F)C2)C(=O)O)cc1` (stereo partly shown) [Example 1.89], the IC50 entry is on record as “C-D”.

`COc1ccc(Cl)cc1S(=O)(=O)N1CCCC(C(=O)N[C@@H](Cc2ccc(-c3ccccc3C)cc2)C(=O)O)C1` (stereo partly shown) [Example 1.90]: the IC50 result is “C-D”.

For `Cc1ccccc1-c1ccc(C[C@H](NC(=O)C2CCCN(S(=O)(=O)Cc3ccccc3)C2)C(=O)O)cc1` (stereo partly shown) [Example 1.91], the IC50 result is “C-D”. Take `Cc1ccccc1-c1ccc(C[C@H](NC(=O)C2CCCN(S(=O)(=O)c3cc(Cl)cc(Cl)c3)C2)C(=O)O)cc1` (stereo partly shown) [Example 1.92]: the IC50 entry is given as “C-D”. For `CC1(C)C2CCC1(CS(=O)(=O)N1CCCC(C(=O)N[C@@H](Cc3ccc(-c4ccc(Cl)cc4Cl)cc3)C(=O)O)C1)C(=O)C2` (stereo partly shown) [Example 1.93], the IC50 entry was “C-D”. For `Cc1ccc(S(=O)(=O)N2CCCC(C(=O)N[C@@H](Cc3ccc(-c4ccc(Cl)cc4Cl)cc3)C(=O)O)C2)cc1` (stereo partly shown) [Example 1.94], the IC50 entry is “C-D”. In the case of `COC(=O)c1ccccc1S(=O)(=O)N1CCCC(C(=O)N[C@@H](Cc2ccc(-c3ccc(Cl)cc3Cl)cc2)C(=O)O)C1` (stereo partly shown) [Example 1.95], the IC50 entry is on record as “C-D”. For the molecule `O=C(N[C@@H](Cc1ccc(-c2ccc(Cl)cc2Cl)cc1)C(=O)O)C1CCCN(S(=O)(=O)c2ccc3ccccc3c2)C1` (stereo partly shown) [Example 1.96], the IC50 result was “C-D”. `O=C(N[C@@H](Cc1ccc(-c2ccc(Cl)cc2Cl)cc1)C(=O)O)C1CCCN(S(=O)(=O)c2c(Cl)cccc2Cl)C1` (stereo partly shown) [Example 1.97]: where the note is “read-out: IC50”, the IC50 was in the range of 2000 to 10000 nM. Consider `COc1ccc(S(=O)(=O)N2CCCC(C(=O)N[C@@H](Cc3ccc(-c4ccc(Cl)cc4Cl)cc3)C(=O)O)C2)cc1OC` (stereo partly shown) [Example 1.98], for which the IC50 (read-out: IC50) was 2000 to 10000 nM. As to `O=C(N[C@@H](Cc1ccc(-c2ccc(Cl)cc2Cl)cc1)C(=O)O)C1CCCN(S(=O)(=O)c2ccccc2C(F)(F)F)C1` (stereo partly shown) [Example 1.99], the IC50 entry is reported as “C-D”. Take `COc1ccc(Cl)cc1S(=O)(=O)N1CCCC(C(=O)N[C@@H](Cc2ccc(-c3ccc(Cl)cc3Cl)cc2)C(=O)O)C1` (stereo partly shown) [Example 1.100]: the half-inhibitory concentration (IC50) entry is “C-D”. Regarding `O=C(N[C@@H](Cc1ccc(-c2ccc(Cl)cc2Cl)cc1)C(=O)O)C1CCCN(S(=O)(=O)Cc2ccccc2)C1` (stereo partly shown) [Example 1.101], the half-inhibitory concentration (IC50) entry is on record as “C-D”. On to `O=C(N[C@@H](Cc1ccc(-c2ccc(Cl)cc2Cl)cc1)C(=O)O)C1CCCN(S(=O)(=O)c2cc(Cl)cc(Cl)c2)C1` (stereo partly shown) [Example 1.102], for which the IC50 result is recorded as “C-D”. Regarding `CC1(C)C2CCC1(CS(=O)(=O)N1CCCC(C(=O)N[C@@H](Cc3ccc(-c4cc(Cl)ccc4Cl)cc3)C(=O)O)C1)C(=O)C2` (stereo partly shown) [Example 1.103], the IC50 result is “C-D”.

Take `Cc1ccc(S(=O)(=O)N2CCCC(C(=O)N[C@@H](Cc3ccc(-c4cc(Cl)ccc4Cl)cc3)C(=O)O)C2)cc1` (stereo partly shown) [Example 1.104]: the IC50 (read-out: IC50) is at most 500 nM. Take `COC(=O)c1ccccc1S(=O)(=O)N1CCCC(C(=O)N[C@@H](Cc2ccc(-c3cc(Cl)ccc3Cl)cc2)C(=O)O)C1` (stereo partly shown) [Example 1.105]: the IC50 result is listed as “C-D”. Same read-out and setting: to `O=C(N[C@@H](Cc1ccc(-c2cc(Cl)ccc2Cl)cc1)C(=O)O)C1CCCN(S(=O)(=O)c2ccc3ccccc3c2)C1` (stereo partly shown) [Example 1.106] belongs “C-D”. For the molecule `O=C(N[C@@H](Cc1ccc(-c2cc(Cl)ccc2Cl)cc1)C(=O)O)C1CCCN(S(=O)(=O)c2c(Cl)cccc2Cl)C1` (stereo partly shown) [Example 1.107], the half-maximal inhibitory concentration (IC50) entry is listed as “C-D”. With `COc1ccc(S(=O)(=O)N2CCCC(C(=O)N[C@@H](Cc3ccc(-c4cc(Cl)ccc4Cl)cc3)C(=O)O)C2)cc1OC` (stereo partly shown) [Example 1.108], the IC50 entry is listed as “C-D”. As to `O=C(N[C@@H](Cc1ccc(-c2cc(Cl)ccc2Cl)cc1)C(=O)O)C1CCCN(S(=O)(=O)c2ccccc2C(F)(F)F)C1` (stereo partly shown) [Example 1.109], the half-inhibitory concentration (IC50) entry is given as “C-D”.

As to `COc1ccc(Cl)cc1S(=O)(=O)N1CCCC(C(=O)N[C@@H](Cc2ccc(-c3cc(Cl)ccc3Cl)cc2)C(=O)O)C1` (stereo partly shown) [Example 1.110], the 50% inhibitory concentration (IC50) result is “C-D”. Take `O=C(N[C@@H](Cc1ccc(-c2cc(Cl)ccc2Cl)cc1)C(=O)O)C1CCCN(S(=O)(=O)c2cc(Cl)cc(Cl)c2)C1` (stereo partly shown) [Example 1.111]: the IC50 result is listed as “C-D”. As for `O=C(N[C@@H](Cc1ccc(-c2cc(Cl)ccc2Cl)cc1)C(=O)O)C1CCCN(c2ncnc(NCc3ccccn3)c2F)C1` (stereo partly shown) [Example 2.1], for the setting “read-out: IC50”, the IC50 is at most 500 nM. As for `O=C(N[C@@H](Cc1ccc(-c2cc(Cl)ccc2Cl)cc1)C(=O)O)C1CCCN(c2ncnc(N3CCNCC3)c2F)C1` (stereo partly drawn) [Example 2.2, (2S)-3-(2′,5′-dichloro[1,1′-biphenyl]-4-yl)-2-[({1-[5-fluoro-6-(1-piperazinyl)-4-pyrimidinyl]-3-piperidinyl}carbonyl)amino]propanoic acid], the IC50 (read-out: IC50) was at most 500 nM. On to `O=C(N[C@@H](Cc1ccc(-c2cc(Cl)ccc2Cl)cc1)C(=O)O)C1CCCN(c2ncnc(N3CCOCC3)c2F)C1` (stereo partly drawn) [Example 2.3, (2S)-3-(2′,5′-dichloro[1,1′-biphenyl]-4-yl)-2-[({1-[5-fluoro-6-(4-morpholinyl)-4-pyrimidinyl]-3-piperidinyl}carbonyl)amino]propanoic acid], for which, for the setting “read-out: IC50”, the IC50 is at most 500 nM. In the case of `Cc1ccc(-c2ccc(C[C@H](NC(=O)C3CCCN(c4ncnc(NCc5ccccn5)c4F)C3)C(=O)O)cc2)cc1` (stereo partly shown) [Example 2.4], for the setting “read-out: IC50”, the IC50 lay within 2000 to 10000 nM.

In the case of `Cc1ccc(-c2ccc(C[C@H](NC(=O)C3CCCN(c4ncnc(NC5CCCCC5)c4F)C3)C(=O)O)cc2)cc1` (stereo partly shown) [Example 2.5], the IC50 result is “C-D”.

As a reminder, the IC50 is the point on the concentration scale where inhibition reaches its midpoint.
